Reference: US20120076781A1, “METHODS OF TREATING CANCERS WITH HER3 ANTISENSE OLIGONUCLEOTIDES” (ENZON PHARMACEUTICALS, INC., priority 2009, published 2012)
In the oligonucleotide strings, read from the 5' end, every base follows the letter of its sugar. An asterisk marks phosphorothioate; unmarked linkages are phosphodiester. Other units and linkages are bracketed, terminal groups are in braces. A string of capitals states the bases alone. l = locked nucleic acid (LNA); [5mC] = 5-methylcytosine; d = 2'-deoxy (DNA)

What was measured:
Assay type in all cases: cell-based
Settings in all cases: 25 nM
[1] = tested on: human EGFR mRNA; experiment: Down-regulation of EGFR mRNA in transfected 15PC3 cells, real-time PCR
Description: (§1) 15PC3: The human prostate cancer cell line 15PC3 was cultured in DMEM (Sigma)+10% fetal bovine serum (FBS)+2 mM Glutamax I+gentamicin (25 μg/ml).
(§2) The cells were treated with oligonucleotides using the cationic liposome formulation LipofectAMINE 2000 (Gibco) as transfection vehicle. Cells were seeded in 6-well cell culture plates (NUNC) and treated when 80-90% confluent. Oligomer concentrations ranged from 1 nM to 25 nM final concentration. Formulation of oligomer-lipid complexes was carried out essentially as described by the manufacturer using serum-free OptiMEM (Gibco) and a final lipid concentration of 5 μg/mL LipofectAMINE 2000. Cells were incubated at 37° C. for 4 hours and treatment was stopped by removal of oligomer-containing culture medium. Cells were washed and serum-containing medium was added. After oligomer treatment, cells were allowed to recover for 20 hours before they were harvested for RNA analysis.
(§3) Total RNA was extracted from cells transfected as described above and using the Qiagen RNeasy kit (Qiagen cat. no. 74104) according to the manufacturer's instructions. First strand synthesis was performed using Reverse Transcriptase reagents from Ambion according to the manufacturer's instructions.
(§4) For each sample 0.5 μg total RNA was adjusted to (10.8 μl) with RNase free H2O and mixed with 2 μl random decamers (50 μM) and 4 μl dNTP mix (2.5 mM each dNTP) and heated to 70° C. for 3 min after which the samples were rapidly cooled on ice. After cooling the samples on ice, 2 μl 10× Buffer RT, 1 μl MMLV Reverse Transcriptase (100 U/μl) and 0.25 μl RNase inhibitor (10 U/μl) was added to each sample, followed by incubation at 42° C. for 60 min, heat inactivation of the enzyme at 95° C. for 10 min, and then cooling the sample to 4° C.
(§5) The sample content of human HER3, EGFR and HER2 mRNA was quantified using the human HER3, EGFR and HER2 ABI Prism Pre-Developed TaqMan Assay Reagents (Applied Biosystems cat. no. Hs00951444_ml (HER3), Hs00193306_ml (EGFR) and Hs00170433_ml (HER2) according to the manufacturer's instructions.
(§6) Glyceraldehyde-3-phosphate dehydrogenase (GAPDH) mRNA quantity was used as an endogenous control for normalizing any variance in sample preparation. The sample content of human GAPDH mRNA was quantified using the human GAPDH ABI Prism Pre-Developed TaqMan Assay Reagent (Applied Biosystems cat. no. 4310884E) according to the manufacturer's instructions.
(§7) The cDNA from the first strand synthesis performed as described in Example 5 was diluted 2-20 times, and analyzed by real time quantitative PCR using Taqman 7500 FAST or 7900 FAST from Applied Biosystems. The primers and probe were mixed with 2× Taqman Fast Universal PCR master mix (2×) (Applied Biosystems Cat. #4364103) and added to 4 μl cDNA to a final volume of 10 μl. Each sample was analysed in duplicate. Assaying 2-fold dilutions of a cDNA that had been prepared on material purified from a cell line expressing the RNA of interest generated standard curves for the assays. Sterile H2O was used instead of cDNA for the no-template control. PCR program: 95° C. for 30 seconds, followed by 40 cycles of 95° C., 3 seconds, 60° C., 20-30 seconds. Relative quantities of target mRNA sequence were determined from the calculated Threshold cycle using the Applied Biosystems Fast System SDS Software Version 1.3.1.21. or SDS Software Version 2.3.
(§8) Oligonucleotides presented in Table 4 were evaluated for their potential to down-regulate HER3, EGFR and HER2 mRNA at concentrations of 1, 5 and 25 nM in 15PC3 cells (or HUH-7 as indicated by *) (see FIGS. 2, 3, 4 and 5). SEQ ID NOs: 235 and 236 were used as scrambled controls.
(§9) The data in Table 4 are presented as percentage down-regulation of mRNA relative to mock transfected cells at 25 nM. Lower-case letters represent DNA monomers, bold, upper-case letters represent β-D-oxy-LNA monomers. All cytosines in LNA monomers are 5-methylcytosines. Subscript “s” represents a phosphorothioate linkage.

[2] = tested on: human HER2 mRNA; experiment: Down-regulation of HER2 mRNA in transfected 15PC3 cells, real-time PCR
Description: as §1, §2, §3, §4, §5, §6, §7, §8, §9

[3] = tested on: human HER3 mRNA; experiment: Down-regulation of HER3 mRNA in transfected 15PC3 cells, real-time PCR
Description: as §1, §2, §3, §4, §5, §6, §7, §8, §9

Row | Substance | EGFR: percentage down-regulation of mRNA relative to mock transfected cells [1] [%] | HER2: percentage down-regulation of mRNA relative to mock transfected cells [2] [%] | HER3: percentage down-regulation of mRNA relative to mock transfected cells [3] [%]
1 | ASTSASgScStScScSaSgSaScSaSTSCSA (antisense lA*lT*lA*dG*dC*dT*dC*dC*dA*dG*dA*dC*dA*lT*l[5mC]*lA) [SEQ ID NO: 173, β-D-oxy-LNA/DNA phosphorothioate gapmer antisense oligonucleotide targeting HER3] | 96.4 | 39.2 | 
2 | ASTSCScSaSaScSaScStStSgSaSCSCSA (antisense lA*lT*l[5mC]*dC*dA*dA*dC*dA*dC*dT*dT*dG*dA*l[5mC]*l[5mC]*lA) [SEQ ID NO: 176, β-D-oxy-LNA/DNA phosphorothioate gapmer antisense oligonucleotide targeting HER3] | 79.4 | 74.8 | 61.6
3 | CSASASgSgScStScSaScSaScSaSTSCST (antisense l[5mC]*lA*lA*dG*dG*dC*dT*dC*dA*dC*dA*dC*dA*lT*l[5mC]*lT) [SEQ ID NO: 182, β-D-oxy-LNA/DNA phosphorothioate gapmer antisense oligonucleotide targeting HER3] |  |  | 74.6
4 | CSASAStScSaStScScSaSaScSaSCSTST (antisense l[5mC]*lA*lA*dT*dC*dA*dT*dC*dC*dA*dA*dC*dA*l[5mC]*lT*lT) [SEQ ID NO: 177, β-D-oxy-LNA/DNA phosphorothioate gapmer antisense oligonucleotide targeting HER3] | 0 | 63.4 | 51.1
5 | CSASGSaScSaStScSaScStScStSGSGST (antisense l[5mC]*lA*lG*dA*dC*dA*dT*dC*dA*dC*dT*dC*dT*lG*lG*lT) [SEQ ID NO: 171, β-D-oxy-LNA/DNA phosphorothioate gapmer antisense oligonucleotide targeting HER3] | 84.2 | 2.8 | 70.6
6 | CSASTSaScStScScStScSaStScSTSTSC (antisense l[5mC]*lA*lT*dA*dC*dT*dC*dC*dT*dC*dA*dT*dC*lT*lT*l[5mC]) [SEQ ID NO: 193, β-D-oxy-LNA/DNA phosphorothioate gapmer antisense oligonucleotide targeting HER3] |  |  | 64
7 | CSASTScScSaSaScSaScStStSgSASCSC (antisense l[5mC]*lA*lT*dC*dC*dA*dA*dC*dA*dC*dT*dT*dG*lA*l[5mC]*l[5mC]) [SEQ ID NO: 175, β-D-oxy-LNA/DNA phosphorothioate gapmer antisense oligonucleotide targeting HER3] | 86.1 | 76.9 | 65.5
8 | CSASTSgStSaSgSaScSaStScSaSASTST (l[5mC]*lA*lT*dG*dT*dA*dG*dA*dC*dA*dT*dC*dA*lA*lT*lT; antisense) [SEQ ID NO: 179] | 52.6 | 75.6 | 70.5
9 | CSASTStScSaSaSgStStScStStSCSAST (antisense l[5mC]*lA*lT*dT*dC*dA*dA*dG*dT*dT*dC*dT*dT*l[5mC]*lA*lT) [SEQ ID NO: 184, β-D-oxy-LNA/DNA phosphorothioate gapmer antisense oligonucleotide targeting HER3] |  |  | 81.1
10 | CSTSCScSaSgSaScSaStScSaScSTSCST (antisense l[5mC]*lT*l[5mC]*dC*dA*dG*dA*dC*dA*dT*dC*dA*dC*lT*l[5mC]*lT) [SEQ ID NO: 170, β-D-oxy-LNA/DNA phosphorothioate gapmer antisense oligonucleotide targeting HER3] | 91.5 | 65.8 | 
11 | GSCSCScSaSgScSaScStSaSaStSTSTSC (antisense lG*l[5mC]*l[5mC]*dC*dA*dG*dC*dA*dC*dT*dA*dA*dT*lT*lT*l[5mC]) [SEQ ID NO: 186, β-D-oxy-LNA/DNA phosphorothioate gapmer antisense oligonucleotide targeting HER3] |  |  | 79.9
12 | TSCSASaStScSaStScScSaSaScSASCST (antisense lT*l[5mC]*lA*dA*dT*dC*dA*dT*dC*dC*dA*dA*dC*lA*l[5mC]*lT) [SEQ ID NO: 178, β-D-oxy-LNA/DNA phosphorothioate gapmer antisense oligonucleotide targeting HER3] | 0 | 88.6 | 76.7
13 | TSCSAScSaScScSaStSaSgScStSCSCSA (antisense lT*l[5mC]*lA*dC*dA*dC*dC*dA*dT*dA*dG*dC*dT*l[5mC]*l[5mC]*lA) [SEQ ID NO: 174, β-D-oxy-LNA/DNA phosphorothioate gapmer antisense oligonucleotide targeting HER3] | 86.4 | 94.8 | 
